Assay results: ChEMBL document CHEMBL1139472, “Synthesis of N-{4-[(2,4-diamino-5-methyl-4,7-dihydro-3H-pyrrolo[2,3-d]pyrimidin-6-yl)thio]benzoyl}-L-glutamic acid and N-{4-[(2-amino-4-oxo-5-methyl-4,7-dihydro-3H-pyrrolo[2,3-d]pyrimidin-6-yl)thio]benzoyl}-L-glutamic acid as dual inhibitors of dihydrofolate reductase and thymidylate synthase and …” (J Med Chem, 2005)
Activity calls are given as the source filed them. The calls are words filed in the database; no cut-off is given here.

Key:
[1] = molecular target: T1, Folylpolyglutamate synthase, mitochondrial (Homo sapiens) (UniProt Q05932); experiment: Ratio of Vmax relative to […] to Km of human recombinant cytosolic FPGS
T1 sequence (whole entry): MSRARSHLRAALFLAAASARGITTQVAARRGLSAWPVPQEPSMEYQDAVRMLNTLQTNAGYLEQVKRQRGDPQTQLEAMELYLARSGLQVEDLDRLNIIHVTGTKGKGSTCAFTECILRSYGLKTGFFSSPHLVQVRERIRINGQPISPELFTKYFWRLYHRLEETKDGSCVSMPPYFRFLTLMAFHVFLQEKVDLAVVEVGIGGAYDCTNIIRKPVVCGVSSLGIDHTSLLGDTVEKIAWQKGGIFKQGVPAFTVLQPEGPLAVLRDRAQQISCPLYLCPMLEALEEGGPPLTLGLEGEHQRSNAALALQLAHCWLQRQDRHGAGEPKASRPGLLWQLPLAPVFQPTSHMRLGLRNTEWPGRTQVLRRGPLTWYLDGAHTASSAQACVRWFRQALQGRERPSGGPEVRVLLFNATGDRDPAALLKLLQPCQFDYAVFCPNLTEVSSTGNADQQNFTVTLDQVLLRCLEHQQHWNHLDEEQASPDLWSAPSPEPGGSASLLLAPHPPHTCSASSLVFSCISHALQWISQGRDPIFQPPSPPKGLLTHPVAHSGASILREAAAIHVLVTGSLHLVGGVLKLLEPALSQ

CCRF-CEM = experiment: Growth inhibition of human CCRF-CEM cells at 20 uM; assay type: functional, cell-based

For Nc1nc(N)c2nc(CNc3ccc(C(=O)N[C@@H](CCC(=O)O)C(=O)O)cc3)cnc2n1, the Ratio [1] was 0.17.

Cc1c(Sc2ccc(C(=O)N[C@@H](CCC(=O)O)C(=O)O)cc2)[nH]c2nc(N)[nH]c(=O)c12 was tested, and the Ratio [1] was 0.06 and the Activity (CCRF-CEM) was “inactive”.
